Data set [1] addresses Botulinum neurotoxin type A (Clostridium botulinum, UniProt P0DPI0). In words: Inhibition of Clostridium botulinum neurotoxin type A light chain by SNAPtide assay.
Data set [2] can be described thus: Toxicity against mouse Neuro2a cells assessed as reduction in cell viability at 10 to 100 uM incubated for 48 hrs. It counts as cell-based. Particulars: n2a.
The target in data set [3] is Botulinum neurotoxin type A (Clostridium botulinum) (UniProt P0DPI0). Put plainly: Inhibition of Clostridium botulinum neurotoxin type A light chain incoulated in mouse Neuro2a cells assessed as reduction in SNAP-25 cleavage at 10 uM incubated for 48 hrs by SDS-PAGE based Western blotting method. It counts as cell-based. In general terms: A western blot detects proteins with antibodies after separation by electrophoresis.
Botulinum neurotoxin type A (Clostridium botulinum), sequence (P0DPI0 2-448 limits assumed): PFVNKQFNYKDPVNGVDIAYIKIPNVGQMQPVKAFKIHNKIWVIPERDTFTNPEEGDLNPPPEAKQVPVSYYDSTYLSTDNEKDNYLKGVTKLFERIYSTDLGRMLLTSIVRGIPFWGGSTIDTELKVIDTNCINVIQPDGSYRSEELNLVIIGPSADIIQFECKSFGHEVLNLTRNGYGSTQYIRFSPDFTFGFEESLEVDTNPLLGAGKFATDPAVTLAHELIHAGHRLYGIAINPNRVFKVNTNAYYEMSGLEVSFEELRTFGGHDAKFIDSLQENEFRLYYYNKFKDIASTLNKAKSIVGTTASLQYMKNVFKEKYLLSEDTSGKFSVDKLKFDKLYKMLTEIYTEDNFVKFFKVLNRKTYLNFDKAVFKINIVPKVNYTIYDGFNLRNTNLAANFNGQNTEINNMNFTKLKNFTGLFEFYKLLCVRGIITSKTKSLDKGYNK

Activity calls are given as the source filed them. The calls are words filed in the database; no cut-off is given here.

Here are results for 11 compounds from ChEMBL document CHEMBL3603798, “Computer-aided identification, synthesis, and biological evaluation of novel inhibitors for botulinum neurotoxin serotype A” (Bioorg Med Chem, 2015).

Botulinum neurotoxin type A, sequence (P0DPI0 2-448 limits assumed): as above

Consider `Cc1cc(NC(=S)N(CCCN2CCC[C@@H](C)C2)Cc2cccs2)ccc1Cl`, for which the IC50 (usually the midpoint of a concentration-inhibition curve) in data set [1] is 92 µM.
In data set [1], `CC[C@@H]1Oc2ccccc2N(CC(=O)NCCCN2CCC(Cc3ccccc3)CC2)C1=O` had an IC50 of 154 µM.
Same read-out and setting: for `COc1cccc(CN2C(=O)c3ccccc3[C@@H]2C(=O)NC2CCC(C)CC2)c1` (stereo not given in full) the value was 157 µM.
Still for that read-out and setting: under `Cc1ccc(-c2nc(SCC(=O)N3CCCC[C@@H]3C)c(S(=O)(=O)c3ccccc3)[nH]2)cc1` stands 159 µM.
Take `O=c1[nH]c2cc3c(cc2c(=O)n1CCc1nc(-c2ccc(C(F)(F)F)cc2)no1)OCO3`: the Activity entry in data set [2] was “Non-toxic”. Also, in data set [3], the inhibition entry is “Active”. Moreover, in data set [1], the IC50 stood at 24 µM.
Consider `O=C(COc1cccc(/C=C2\NC(=O)N(Cc3ccccc3F)C2=O)c1)Nc1ccc(F)cc1`, for which the IC50 in data set [1] is more than 50 µM.
As to `O=c1c2cc3c(cc2n(Cc2nc(-c4ccc(C(F)(F)F)cc4)no2)c(=O)n1Cc1nc(-c2ccc(C(F)(F)F)cc2)no1)OCO3`, the IC50 in data set [1] was determined as 16 µM.
`O=C(COc1ccc(/C=C2\NC(=O)N(Cc3ccccc3F)C2=O)cc1)Nc1ccc(F)cc1` showed an IC50 in data set [1] of 26 µM.
Turning to `O=C(COc1ccccc1/C=C1\NC(=O)N(Cc2ccccc2F)C1=O)Nc1ccc(F)cc1`, the Activity entry in data set [2] is “Non-toxic”. Besides, in data set [3], the inhibition entry is “Active”. This compound gave an IC50 in data set [1] of 22 µM.
Regarding `N=C(N)NCCC[C@H](NC(=O)[C@@H](N)CCCNC(=N)N)C(=O)NCC(=O)N[C@@H](CS)C(=O)O`, the IC50 in data set [1] was 31 µM.
Regarding `COC(=O)c1c(C)nc2n(CCN3CCCCC3)c3ccccc3n12`, in data set [1], the IC50 stood at 55 µM.
